Data on 24 compounds can be found in US20130150376A1, “Novel Sultam Compounds” (PFIZER INC., priority 2010, published 2013).

Structures can show the parent of a compound that is named as a salt. Where two headings read alike, the source gives them in different places.

The assay deals with T1, BACE1 enzyme (soluble, truncated BACE enzyme, BACE1deltaTM96His) (Homo sapiens, UniProt P56817).
T1 construct: soluble, truncated BACE enzyme (BACE1deltaTM96His); His; made in house
As to the kind of experiment: BACE1 Fluorescent Polarization (FP) Assay. The format is biochemical. The conditions noted are these: geometric mean of 2-4 IC50 determinations unless footnoted (^2: 5-6 determinations; ^4: single determination). The text has this:
BACE1 Fluorescent Polarization (FP) Assay
The fluorescently tagged synthetic substrate, Biotin-GLTNIKTEEISEISŶEVEFR-C[oregon green]KK-OH can be efficiently cleaved by the beta-secretase enzyme and is therefore useful to assay beta-secretase activity in the presence or absence of inhibitory compounds. The his tagged BACE1 enzyme was affinity purified material from conditioned media of CHO-K1 cells that had been transfected to express soluble, truncated BACE enzyme (BACE1deltaTM96His). Compounds were incubated in a ½ log dose response (from a top concentration of 100 μM) with BACE1 enzyme (0.1 nM final) and the biotinylated fluorescent peptide substrate (150 nM final) in assay buffer containing 100 mM sodium acetate, pH 4.5 (brought to pH with acetic acid), and 0.001% Tween-20. Total reaction volumes of 30 μL were carried out in 384-well black plates (Thermo Scientific 4318). Plates were covered and incubated for 3 hours at 37° C. The reactions were then stopped by addition of 30 μL of 1.5 μM Streptavidin (Pierce, 21125). After a 10 minute incubation at room temperature, plates were read on a PerkinElmer Envision for fluorescence polarization (Ex485 nm/Em530 nm). The activity of the beta-secretase enzyme is detected by changes in the fluorescence polarization (Δ mP) that occur when the substrate is cleaved by the enzyme.

Setting [1] is: 8-point curve, read-out: BACE activity, 8-point curve, IC50.
[2] abbreviates: 11-point curve, read-out: BACE activity, 11-point curve, IC50.

T1 sequence (P56817 46-457): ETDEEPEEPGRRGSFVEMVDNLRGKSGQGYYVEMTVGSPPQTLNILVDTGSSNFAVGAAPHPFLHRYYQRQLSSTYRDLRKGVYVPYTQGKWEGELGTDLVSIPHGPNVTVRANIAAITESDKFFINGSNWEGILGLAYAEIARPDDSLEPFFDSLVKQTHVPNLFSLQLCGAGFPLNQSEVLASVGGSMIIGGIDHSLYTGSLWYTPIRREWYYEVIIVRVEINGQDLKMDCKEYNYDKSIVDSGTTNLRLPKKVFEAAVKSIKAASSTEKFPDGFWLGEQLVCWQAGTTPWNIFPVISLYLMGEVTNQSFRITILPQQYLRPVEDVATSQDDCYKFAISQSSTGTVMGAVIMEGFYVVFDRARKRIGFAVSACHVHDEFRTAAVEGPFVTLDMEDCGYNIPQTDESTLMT

The term IC50 denotes the point on the concentration scale where inhibition reaches its midpoint. With `Cc1csnc1-c1cc(CN2CC[C@]3(C=CS(=O)(=O)N3c3cccc(F)c3)C[C@@H]2C)ccc1O` [Example 72, 4-{[(5R,7S)-1-(3-fluorophenyl)-7-methyl-2,2-dioxido-2-thia-1,8-diazaspiro[4.5]dec-3-en-8-yl]methyl}-2-(4-methyl-1,2-thiazol-3-yl)phenol, trifluoroacetic acid salt], the IC50 is, setting by setting: under setting [1], 0.97 nM; under setting [2], 24.3 nM.

On to `Cc1cccnc1-c1cc(CN2CC[C@]3(C=CS(=O)(=O)N3c3cccc(F)c3)C[C@@H]2C)ccc1F` [Example 78, (5R,7S)-8-[4-fluoro-3-(3-methylpyridin-2-yl)benzyl]-1-(3-fluorophenyl)-7-methyl-thia-1,8-diazaspiro[4.5]dec-3-ene 2,2-dioxide], for which the IC50 under setting [2] came out at 5650 nM.

As for `C[C@H]1C[C@@]2(C=CS(=O)(=O)N2c2cccc(F)c2)CCN1Cc1ncoc1C1CCCO1` (stereo partly drawn) [Example 70, (5R,7S)-1-(3-fluorophenyl)-7-methyl-8-{[5-(tetrahydrofuran-2-yl)-1,3-oxazol-4-yl]methyl}-2-thia-1,8-diazaspiro[4.5]dec-3-ene 2,2-dioxide], the IC50 was determined as 2560 nM under setting [1] and 6810 nM under setting [2].

As to `C[C@H]1C[C@@]2(C=CS(=O)(=O)N2c2cccc(F)c2)CCN1Cc1scnc1-c1cccnc1` [Example 48, (5R,7S)-1-(3-fluorophenyl)-7-methyl-8-[(4-pyridin-3-yl-1,3-thiazol-5-yl)methyl]-2-thia-1,8-diazaspiro[4.5]dec-3-ene 2,2-dioxide], the IC50 was determined as 5600 nM under setting [1] and 9030 nM under setting [2].

Turning to `Cc1ccsc1-c1ncsc1CN1CC[C@]2(C=CS(=O)(=O)N2c2cccc(F)c2)C[C@@H]1C` [Example 45, (5R,7S)-1-(3-fluorophenyl)-7-methyl-8-{[4-(3-methyl-2-thienyl)-1,3-thiazol-5-yl]methyl}-2-thia-1,8-diazaspiro[4.5]dec-3-ene 2,2-dioxide], the IC50 runs as follows: under setting [1], 5600 nM; under setting [2], 15300 nM.

With `C[C@H]1C[C@]2(CCN1Cc1ncoc1-c1cncs1)CCS(=O)(=O)N2c1cccc(F)c1` [Example 60, (5R,7S)-1-(3-fluorophenyl)-7-methyl-8-{[5-(1,3-thiazol-5-yl)-1,3-oxazol-4-yl]methyl}-2-thia-1,8-diazaspiro[4.5]decane 2,2-dioxide, hydrochloride salt], the IC50 under setting [2] was found to be 6540 nM.

For `CCc1ccccc1-c1cc(CN2CC[C@]3(CCS(=O)(=O)N3c3cccc(F)c3)C[C@@H]2C)ccc1O` [Example 8, 2′-ethyl-5-{[(5R,7S)-1-(3-fluorophenyl)-7-methyl-2,2-dioxido-2-thia-1,8-diazaspiro[4.5]dec-8-yl]methyl}biphenyl-2-ol], under setting [1], the IC50 turned out to be 124 nM.

As to `C[C@H]1C[C@@]2(C=CS(=O)(=O)N2c2cccc(F)c2)CCN1Cc1scnc1-c1cncc(F)c1` [Example 44, (5R,7S)-1-(3-fluorophenyl)-8-{[4-(5-fluoropyridin-3-yl)-1,3-thiazol-5-yl]methyl}-7-methyl-2-thia-1,8-diazaspiro[4.5]dec-3-ene 2,2-dioxide, hydrochloride salt], the IC50 is, setting by setting: under setting [1], 3070 nM; under setting [2], 8460 nM.

Consider `CC(C)Oc1cccc(CN2CC[C@]3(C=CS(=O)(=O)N3c3cccc(F)c3)C[C@@H]2C)c1` [Example 17, (5R,7S)-1-(3-fluorophenyl)-8-(3-isopropoxybenzyl)-7-methyl-2-thia-1,8-diazaspiro[4.5]dec-3-ene 2,2-dioxide], for which the IC50 is 84.9 nM under setting [1] and 908 nM under setting [2].

Take `Cc1ccsc1-c1ocnc1CN1CC[C@]2(CCS(=O)(=O)N2c2cccc(F)c2)C[C@@H]1C` [Example 58, (5R,7S)-1-(3-fluorophenyl)-7-methyl-8-{[5-(3-methyl-2-thienyl)-1,3-oxazol-4-yl]methyl}-2-thia-1,8-diazaspiro[4.5]decane 2,2-dioxide, hydrochloride salt]: the IC50 under setting [2] amounted to 6530 nM.

Turning to `CC(C)Cc1ncoc1CN1CC[C@]2(CC(C)S(=O)(=O)N2c2cccc(F)c2)C[C@@H]1C` (mixture of isomers) [Example 2, (5R,7S)-1-(3-Fluorophenyl)-8-[(4-isobutyl-1,3-oxazol-5-yl)methyl]-3,7-dimethyl-2-thia-1,8-diazaspiro[4.5]decane 2,2-dioxide, formate salt], the IC50 under setting [2] was 4440 nM.

On to `C[C@H]1C[C@]2(CCN1Cc1ncoc1-c1cccs1)CCS(=O)(=O)N2c1cccc(F)c1` [Example 56, (5R,7S)-1-(3-fluorophenyl)-7-methyl-8-{[5-(2-thienyl)-1,3-oxazol-4-yl]methyl}-2-thia-1,8-diazaspiro[4.5]decane 2,2-dioxide, hydrochloride salt], for which the IC50 under setting [2] is 15400 nM.

Consider `C[C@H]1C[C@@]2(C=CS(=O)(=O)N2c2cccc(F)c2)CCN1Cc1ncoc1C1CCCOC1` (stereo partly drawn) [Example 79, (5R,7S)-1-(3-fluorophenyl)-7-methyl-8-{[5-(tetrahydro-2H-pyran-3-yl)-1,3-oxazol-4-yl]methyl}-2-thia-1,8-diazaspiro[4.5]dec-3-ene 2,2-dioxide], for which the IC50 runs as follows: under setting [1], 189 nM; under setting [2], 519 nM.

With `Cc1ccsc1-c1cc(CN2CC[C@]3(C=CS(=O)(=O)N3c3cccc(F)c3)C[C@@H]2C)ccc1O` [Example 5, 4-{[(5R,7S)-1-(3-fluorophenyl)-7-methyl-2,2-dioxido-2-thia-1,8-diazaspiro[4.5]dec-3-en-8-yl]methyl}-2-(3-methyl-2-thienyl)phenol, hydrochloride salt], the IC50 under setting [1] is 0.731 nM.

As for `Cc1ccccc1-c1cccc(CN2CC[C@]3(C=CS(=O)(=O)N3c3cccc(F)c3)C[C@@H]2C)c1` [Example 54, (5R,7S)-1-(3-fluorophenyl)-7-methyl-8-[(2′-methylbiphenyl-3-yl)methyl]-2-thia-1,8-diazaspiro[4.5]dec-3-ene 2,2-dioxide], the IC50 is 53.3 nM under setting [1] and 137 nM under setting [2].

Regarding `Cc1ncccc1-c1ocnc1CN1CC[C@]2(C=CS(=O)(=O)N2c2cccc(F)c2)C[C@@H]1C` [Example 76, (5R,7S)-1-(3-fluorophenyl)-7-methyl-8-{[5-(2-methylpyridin-3-yl)-1,3-oxazol-4-yl]methyl}-2-thia-1,8-diazaspiro[4.5]dec-3-ene 2,2-dioxide], the IC50 was 705 nM under setting [1] and 2970 nM under setting [2].

Turning to `C[C@H]1C[C@]2(CCN1Cc1ccc(O)c(C3CCCO3)c1)CCS(=O)(=O)N2c1cccc(F)c1` (single isomer, unassigned) [Example 47], the IC50 runs as follows: under setting [1], 47.1 nM; under setting [2], 249 nM.

On to `C[C@H]1C[C@]2(CCN1Cc1ccc(O)c(C3CCC3)c1)CCS(=O)(=O)N2c1ccccn1` [Example 92, 2-cyclobutyl-4-{[(5R,7S)-7-methyl-2,2-dioxido-1-(pyridin-2-yl)-2-thia-1,8-diazaspiro[4.5]dec-8-yl]methyl}phenol], for which, under setting [2], the IC50 is 4190 nM.

On to `Cc1scnc1-c1cc(CN2CC[C@]3(CCS(=O)(=O)N3c3ccccn3)C[C@@H]2C)ccc1O` [Example 90, 4-{[(5R,7S)-7-methyl-2,2-dioxido-1-(pyridin-2-yl)-2-thia-1,8-diazaspiro[4.5]dec-8-yl]methyl}-2-(5-methyl-1,3-thiazol-4-yl)phenol], for which the IC50 under setting [2] worked out at 3280 nM.

Regarding `C[C@H]1C[C@@]2(C=CS(=O)(=O)N2c2cccc(F)c2)CCN1Cc1ccc(O)c(C2CCCO2)c1` (single isomer, unassigned) [Example 30], the IC50 under setting [1] is 208 nM.

For `Cc1cccnc1-c1cc(CN2CC[C@@]3(C[C@@H]2C)C(=O)CS(=O)(=O)N3c2cccc(F)c2)ccc1O` [Example 85, (5R,7S)-1-(3-fluorophenyl)-8-[4-hydroxy-3-(3-methylpyridin-2-yl)benzyl]-7-methyl-2-thia-1,8-diazaspiro[4.5]decan-4-one 2,2-dioxide], the IC50 under setting [2] stood at 715 nM.

On to `C[C@H]1C[C@@]2(C=CS(=O)(=O)N2c2cccc(F)c2)CCN1Cc1ccc(O)c(OC2CC2)c1` [Example 14, 2-(cyclopropyloxy)-4-{[(5R,7S)-1-(3-fluorophenyl)-7-methyl-2,2-dioxido-2-thia-1,8-diazaspiro[4.5]dec-3-en-8-yl]methyl}phenol], for which the IC50 under setting [1] was 42.5 nM.

For `Cc1ccncc1-c1cccc(CN2CC[C@]3(CCS(=O)(=O)N3c3cccc(F)c3)C[C@@H]2C)c1` [Example 55, (5R,7S)-1-(3-fluorophenyl)-7-methyl-8-[3-(4-methy|pyridin-3-yl)benzyl]-2-thia-1,8-diazaspiro[4.5]decane 2,2-dioxide, hydrochloride salt], the IC50 under setting [1] was determined as 392 nM and the IC50 under setting [2] turned out to be 1020 nM.

On to `C[C@H]1C[C@@]2(C=CS(=O)(=O)N2c2cccc(F)c2)CCN1Cc1ccc(O)c(F)c1` [Example 18, 2-fluoro-4-{[(5R,7S)-1-(3-fluorophenyl)-7-methyl-2,2-dioxido-2-thia-1,8-diazaspiro[4.5]dec-3-en-8-yl]methyl}phenol, hydrochloride salt], for which the IC50 under setting [1] was found to be 1.86 nM.
